Results on 1 compound are retold here after patent publication US5747506A, “Isoquinoline compounds, compositions containing them and their pharmaceutical uses” (Novartis AG, priority 1993, dated 1998).

The subject of experiment [1] is human PDE IV (neutrophils). As to the kind of experiment: TEST A: Human PDE Isoenzyme Inhibition Assay, type IV. It is filed as biochemical. An excerpt:
C2 H5 OH. For pharmacological experiments it should be diluted at least 1:10,000.]
TEST A: Human PDE Isoenzyme Inhibition Assay
All isoenzyme preparations are derived from human sources. Type III and IV preparations are obtained taking advantage of the predominance of type III isoenzymes in platelets and of type IV isoenzymes in neutrophils applying the following techniques:
Neutrophils (type IV) and platelets (types II and III) are obtained from human blood and sonicated (Branson probe, 4×15 sec.). Human lung (types I and V) is obtained from patients undergoing surgery and homogenized using a Polytron homogenizer (two bursts of 30 sec).
Isoenzyme preparations: PDE III and IV (substrate cAMP 1 μM) preparations consist of low-speed supernates of the platelet and neutrophil homogenates, respectively.

Experiment [2] relates to TNFα secretion, THP-1 cells. As to the kind of experiment: TEST C: Inhibition of TNFα Secretion (THP-1 cells, γ-interferon/LPS). It is filed as cell-based. The conditions noted are these: Homo sapiens, LPS, γ-interferon, 40 hours, hydrogen-oxalate salt. How it is done: TEST C: Inhibition of TNFα Secretion
900 μl THP-1 cells (0.5 10^6 cells together with 100 U γ-interferon/0.9 ml) are pipetted into 24 well culture plates and followed by 100 μl test substance. After 3 hours at 37° C. in 5% CO2 /95% air, 10 μl LPS 5 μg/ml is added and the incubation continued for a further 40 hours. Appropriate controls are also included. The media are then removed and clarified by centrifugation at 1000 g for 10 min. 1.0 ml digitonin 0.01% is added to the wells to lyse the cells which are loosened by scraping with a rubber policeman and left at 4° C. for 10 min. Lactate dehydrogenase measurements are then performed immediately and the samples stored at […] until the other determinations can be performed. The assays are: IL-1β (medium), TNF-α (medium), and DNA (lysates). IL-1β, and TNF-α assays are determined using commercially available ELISA kits.
The method of Kapuscinski et al Anal. Biochem. (83, 252-257 (1977) is used to assay DNA. 300 μl samples of cell lysate in 0.01% digitonin are mixed with 750 μl tris-HCl buffer pH 7.0 (containing 13.2 mM Na2 SO4), 300 μl H2 O and 150 μl DAPI (4',6-diamidino-2-phenylindole.2HCl) 2 μg/ml. The fluorescence is then measured at 372 nm (excitation) and 454 nm (emission) using a Perkin Elmer 3000 fluorimeter. The samples are read against a standard curve of calf thymus DNA (0.5 to 10 μg/ml) run at the same time. […]

With `CCc1cc2cc(OCCO)c(OC)cc2c(-c2cc(OC(C)C)cc(OC(C)C)c2)n1` [Example 1, 1-(3,5-diisopropoxyphenyl)-3-ethyl-6-(2-hydroxyethoxy)-7-methoxy-isoauinoline], the IC50 (in general, the point on the concentration scale where inhibition reaches its midpoint) in experiment [1] (TEST A, 1 μM [3H]-cyclic AMP substrate, hydrogen-oxalate salt) is 2.9 ± 1.2 nM; in experiment [2], about 100 nM. Besides, in experiment [1] (type IV vs other isoenzyme preparations, hydrogen oxalate salt), the “fold greater activity in inhibiting the type IV isoenzyme than other isoenzyme preparations tested” value is “at least 180 fold”.
